Test results published in patent US7160892B2, “Pyrimidone compounds and pharmaceutical compositions containing the same” (Eisai Co., Ltd., priority 2001, dated 2007).

Assays:
[1] = molecular target: T1, human adenosine A1 receptor (Homo sapiens, UniProt P30542); assay: Measurement of the binding ability to adenosine A1 receptor (3H-CCPA displacement, CHOK1 membranes); conditions: read-out: K1(nM) A1
T1 construct: expressed in transfected cells; host or cells: CHOK1 cells (membrane sample)
T1 sequence (P30542 1-326): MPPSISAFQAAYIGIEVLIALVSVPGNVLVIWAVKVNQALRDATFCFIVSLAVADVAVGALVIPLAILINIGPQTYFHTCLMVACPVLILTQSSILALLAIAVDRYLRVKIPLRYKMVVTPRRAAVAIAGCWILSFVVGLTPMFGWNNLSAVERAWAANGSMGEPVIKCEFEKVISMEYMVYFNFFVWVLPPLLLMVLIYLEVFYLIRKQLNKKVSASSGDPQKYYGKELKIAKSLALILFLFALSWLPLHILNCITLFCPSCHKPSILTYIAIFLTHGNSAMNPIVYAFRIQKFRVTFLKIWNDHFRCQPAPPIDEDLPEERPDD
Protocol: Measurement of the Binding Ability to Adenosine A1 Receptor
A human adenosine A1 receptor cDNA was expressed in excess in CHOK1 cells, and this membrane sample was suspended at a protein concentration of 66.7 μg/ml in 20 mM HEPES buffer, pH 7.4 (10 mM MgCl2, 100 mM NaCl). To 0.45 ml of this membrane sample suspension were added 0.025 ml of 60 nM tritium-labeled chlorocyclopentyl adenosine (^3H—CCPA, from NEN Ltd.) and 0.025 ml of test compound. This mixture was left at 30° C. for 120 minutes, filtered rapidly under suction through a glass fiber filter (GF/B, from Whatman), and immediately washed twice with 5 ml of 50 mM water-cooled Tris-HCl buffer. Thereafter, the glass fiber filter was transferred to a vial, scintillator was added thereto, and the radioactivity on the filter was measured by a liquid scintillation counter. […]
In the above formula, the total binding means ^3H-CCPA-bound radioactivity in the absence of the test compound; the nonspecific binding means ^3H-CCPA-bound radioactivity in the presence of 100 μM RPIA ([R]-[1-methyl-2-phenylethyl] adenosine); and the binding in the presence of the test compound means ^3H-CCPA-bound radioactivity in the presence of the test compound at predetermined concentrations. The inhibition constant (Ki value) in the table was determined from the formula of Cheng-Prusoff.

adenosine A2A receptor = molecular target: T2, adenosine A2A receptor (Homo sapiens, UniProt P29274); assay: Measurement of the binding ability to adenosine A2A receptor (3H-CGS21680 displacement, membrane sample); conditions: read-out: K1(nM) A2A
T2 construct: purchased Receptor Biology Inc
T2 sequence (P29274 whole entry): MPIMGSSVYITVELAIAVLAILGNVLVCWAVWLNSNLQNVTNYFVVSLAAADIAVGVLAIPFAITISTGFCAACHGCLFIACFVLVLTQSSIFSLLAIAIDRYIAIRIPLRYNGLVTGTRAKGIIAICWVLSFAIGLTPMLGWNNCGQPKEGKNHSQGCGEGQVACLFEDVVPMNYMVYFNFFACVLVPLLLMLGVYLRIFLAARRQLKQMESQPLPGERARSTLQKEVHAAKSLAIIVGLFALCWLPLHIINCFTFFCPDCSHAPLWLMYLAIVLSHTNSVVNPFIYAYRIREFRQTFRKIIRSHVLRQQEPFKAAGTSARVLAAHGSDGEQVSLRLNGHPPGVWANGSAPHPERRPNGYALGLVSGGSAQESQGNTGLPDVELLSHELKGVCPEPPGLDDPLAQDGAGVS
Protocol: Measurement of the Binding Ability to Adenosine A2A Receptor
An experiment of inhibition of binding to adenosine A2A receptor was conducted using a membrane sample (Receptor Biology Inc.) where an adenosine A2A receptor cDNA was expressed in excess. This membrane sample was suspended at a protein concentration of 22.2 μg/ml in 20 mM HEPES buffer, pH 7.4 (10 mM MgCl2 and 100 mM NaCl). To 0.45 ml of this membrane sample suspension were added 0.025 ml of 500 nM tritium-labeled 2-p-[2-carboxyethyl]phenetylamino-5′-N-ethylarboxyamide adenosine (^3H-CGS21680, from NEN) and 0.025 ml of test compound. […] Thereafter, the glass fiber filter was transferred to a vial, scintillator was added thereto, and the radioactivity on the filter was measured by a liquid scintillation counter. […]
Here, the total binding means ^3H-CGS21680-bound radioactivity in the […] of the test compound; the nonspecific binding means ^3H-CGS21680-bound radioactivity in the presence of 100 μM RPIA; and the binding in the […] of the test compound means ^3H-CGS21680-bound radioactivity in the […] of the test compound at predetermined concentrations. The inhibition constant (Ki value) in the table was determined from the formula of Cheng-Prusoff.

[2] = molecular target: T3, human adenosine A2B receptor (Homo sapiens, UniProt P29275); assay: Inhibition of NECA-stimulated production of cAMP in adenosine A2B receptor-expressing cells; type: cell-based; conditions: read-out: I C50(nM) A2B
T3 construct: expressed in transfected cells; host or cells: CHOK1 cells
T3 sequence (P29275 1-332): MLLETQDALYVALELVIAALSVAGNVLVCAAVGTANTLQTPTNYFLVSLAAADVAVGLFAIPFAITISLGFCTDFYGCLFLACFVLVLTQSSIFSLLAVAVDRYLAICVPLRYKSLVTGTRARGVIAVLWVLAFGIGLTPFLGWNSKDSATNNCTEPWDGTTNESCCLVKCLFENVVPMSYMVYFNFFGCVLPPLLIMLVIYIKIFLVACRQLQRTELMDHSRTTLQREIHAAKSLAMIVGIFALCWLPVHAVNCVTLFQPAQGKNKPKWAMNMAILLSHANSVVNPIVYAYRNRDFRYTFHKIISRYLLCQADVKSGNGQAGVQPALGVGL
Protocol: Experiment of Inhibition of NECA-Stimulated Production of cAMP in Adenosine A2B Receptor-Expressing Cells
CHOK1 cells where human adenosine A2B receptor had been expressed in excess were plated onto a 24-well plate at a density of 1.5×10^5 cells/well, cultured overnight, and used in the experiment. […] That is, the adhering cells were washed twice with 2 ml/well Krebs-Ringer buffer solution (containing 0.1% BSA; pH 7.4) and pre-incubated for 30 minutes in a volume of 0.5 ml/well. […] After pre-incubation for 15 minutes, the reaction was terminated with 0.1 N HCl in a volume of 300 μl/well. Measurement of intracellular cAMP was carried out using a cAMP enzyme immunoassay kit produced by Amersham.

Compound	Ki [1] [nM]	Ki (adenosine A2A receptor) [nM]	IC50 [2] [nM]
Nc1nc(-c2ccco2)c(-c2ccncc2)c(=O)[nH]1 [Example 2, 2-Amino-6-(2-furyl)-5-(4-pyridyl)-3,4-dihydro-4-pyrimidinone]	1110	345	256
Cn1c(N)nc(-c2ccco2)c(-c2ccncc2)c1=O [Example 7, 2-Amino-6-(2-furyl)-3-methyl-5-(4-pyridyl)-3,4-dihydro-4-pyrimidinone]	966	493	71
